pEC50: −log10 of the molar value.

The assay deals with bovine cultured trabecular meshwork cells. Kind of assay: Effects on morphology of bovine cultured trabecular meshwork cells (image analysis of cell area). Type of assay: cell-based. Particulars: Bos taurus, 3 h, drug treatment for three hours at 37° C., rate of change in area by image analysis, read-out: EC50 (concentration required to reduce the cell area of the trabecular meshwork cells by 50%). The source says:
In order to study utility of the present compounds in glaucoma, effects of the present compounds on morphology of trabecular meshwork cells were investigated.
The possibility has been reported that drugs having effects of increasing aqueous humor outflow can be found by evaluating effects of drugs on morphology of cultured trabecular meshwork cells (Invest. Ophthalmol. Vis. Sci., 33, 2631-2640 (1992)). Accordingly, effects of the present compounds on morphology of bovine cultured trabecular meshwork cells were studied in the similar manner to the method described in the above-mentioned literature.
Morphological changes in bovine cultured trabecular meshwork cells by adding the present compounds were quantitatively evaluated by image analysis.
Bovine trabecular meshwork cells (passage number 2 to 5) cultured in a basal medium for mammalian cell culture D-MEM (Dulbecco's Modified Eagle Medium, manufactured by Gibco Co., Ltd.) containing fetal bovine serum (10%), amphotericin B (2.5 μg/ml) and gentamicin (50 μg/ml) were treated with a trypsin-EDTA solution (0.05% trypsin, 0.53 mM EDTA·4Na) 24 hours before the later drug treatment and seeded in a 24-well plate (10^4 cells/well). Twelve hours before the later drug treatment, the cells were washed with phosphate-buffered physiological saline, and then the medium was replaced by D-MEM containing amphotericin B (2.5 μg/ml) and gentamicin (50 μg/ml) (hereinafter referred to as “medium A”).
A test compound was dissolved in dimethyl sulfoxide (DMSO), and the medium A was added to the solution, followed by sterilizing the solution by filtration. The medium A was further added to the solution to dilute it at a prescribed concentration. […]
Photographed cell images were incorporated from the photographs into an image analysis system with a CCD camera (manufactured by HAMAMATU Co., Ltd.). Outlines of the incorporated cell images were traced, and areas were measured. […]
`C=C(CC)C(=O)c1ccc(OCC(=O)O)c(Cl)c1Cl` [Ethacrynic acid, reference compound]: the pEC50 was 4.21. As to `C=C(C(=O)c1ccc(CCCN(C)C)cc1)c1ccccc1` [Compound No. 4-2, 1-[4-[3-(Dimethylamino)propyl]phenyl]-2-phenyl-2-propen-1-one], the pEC50 was 6.08. In the case of `C=C(C(=O)c1ccc(/C=C/CN(C)C)cc1)c1ccccc1` [Compound No. 4-1, 1-[4-[(E)-3-(Dimethylamino)-1-propenyl]phenyl]-2-phenyl-2-propen-1-one] it was 6.24.

The values above are taken from patent US6395932B1, “1,2-diphenyl-2-propen-1-one derivatives” (Santen Pharmaceutical Co., Ltd., priority 1999, dated 2002).
